The values that follow come from ChEMBL document CHEMBL4665787, “Bifunctional and Unusual Amino Acid β- or γ-Ester Prodrugs of Nucleoside Analogues for Improved Affinity to ATB and Enhanced Metabolic Stability: An Application to Floxuridine” (J Med Chem, 2020).

The term inhibition in vivo denotes the percentage by which the read-out fell short of the control. The half-life is the time needed for the level to fall by half in the phase considered. As a reminder, the Cmax is the highest concentration seen after dosing. Usually AUC(0-t) stands for exposure summed from dosing to a finite time, without extrapolation to infinity. Lower therefore signals less exposure. One may read the IC50 as the concentration needed to halve the response being measured.

The nature of series [1]: Ratio of AUC (0 to t) in NOD SCID nude mouse plasma xenografted with ZR-75-1 cells to AUC (0 to t) in NOD SCID mouse tumour xenografted with ZR-75-1 cells. In kind it is ADME, cell-free, Tumor/Plasma.
A short description of series [2]: Toxicity in NOD SCID nude mouse xenografted with human ZR-75-1 cells assessed as body weight at 90 mg/kg, iv for 20 days (reference value: 29.2 +/- 2.5g). In kind it is organism-based. As to conditions: in vivo, 480 h, time 20 day. (In general: Xenograft models place foreign cells or tissue in a host animal.)
Series [3] can be described thus: Drug uptake in Xenopus laevis oocytes at 0.5 mM incubated for 10 mins by HPLC analysis. As to conditions: oocyte, 500 µM. The format is ADME, cell-based.
Another series concerns MIA PaCa-2. The experiment in a line: Antitumour activity against human MIA-PaCa-2 cells xenografted in NOD SCID nude mouse assessed as tumour inhibition at 90 mg/kg, iv administered for 20 days measured every 2 day by caliper method relative to control. In kind it is functional. To be noted: MIA PaCa-2, iv, 480 h, time 20 day.
A short description of series [4]: Half life of compound in human ZR-75-1 cell homogenate. In kind it is ADME, tissue-based.
In the next series the test system is thymidine phosphorylase. The experiment in a line: Half life of compound in thymidine phosphorylase buffer at 300 uM by HPLC analysis. In kind it is physicochemical.
A short description of series [5]: Cmax in NOD SCID nude mouse plasma xenografted with ZR-75-1 cells assessed as fluorouracil at 90 mg/kg, iv measured up to 24 hrs by HPLC-MS/MS analysis. In kind it is ADME, organism-based. Details: route intravenous, dose 90 mg/kg, time <=24. To be noted: in vivo.
Series [6] can be described thus: AUC (0 to t) in NOD SCID nude mouse tumour xenografted with ZR-75-1 cells assessed as floxuridine; 5-fluoro-2-deoxyuridine AUC at 90 mg/kg, iv measured up to 24 hrs by HPLC-MS/MS analysis. To be noted: in vivo. The format is ADME, organism-based, Neoplasm.
Series [7] can be described thus: AUC (0 to t) in NOD SCID nude mouse plasma xenografted with ZR-75-1 cells at 90 mg/kg, iv measured up to 24 hrs by HPLC-MS/MS analysis. The format is ADME, organism-based. Details: route intravenous, dose 90 mg/kg, time <=24.
The target of series [8] is T1, Solute carrier family 15 member 1 (Homo sapiens, UniProt P46059).
T1 sequence (P46059 whole entry): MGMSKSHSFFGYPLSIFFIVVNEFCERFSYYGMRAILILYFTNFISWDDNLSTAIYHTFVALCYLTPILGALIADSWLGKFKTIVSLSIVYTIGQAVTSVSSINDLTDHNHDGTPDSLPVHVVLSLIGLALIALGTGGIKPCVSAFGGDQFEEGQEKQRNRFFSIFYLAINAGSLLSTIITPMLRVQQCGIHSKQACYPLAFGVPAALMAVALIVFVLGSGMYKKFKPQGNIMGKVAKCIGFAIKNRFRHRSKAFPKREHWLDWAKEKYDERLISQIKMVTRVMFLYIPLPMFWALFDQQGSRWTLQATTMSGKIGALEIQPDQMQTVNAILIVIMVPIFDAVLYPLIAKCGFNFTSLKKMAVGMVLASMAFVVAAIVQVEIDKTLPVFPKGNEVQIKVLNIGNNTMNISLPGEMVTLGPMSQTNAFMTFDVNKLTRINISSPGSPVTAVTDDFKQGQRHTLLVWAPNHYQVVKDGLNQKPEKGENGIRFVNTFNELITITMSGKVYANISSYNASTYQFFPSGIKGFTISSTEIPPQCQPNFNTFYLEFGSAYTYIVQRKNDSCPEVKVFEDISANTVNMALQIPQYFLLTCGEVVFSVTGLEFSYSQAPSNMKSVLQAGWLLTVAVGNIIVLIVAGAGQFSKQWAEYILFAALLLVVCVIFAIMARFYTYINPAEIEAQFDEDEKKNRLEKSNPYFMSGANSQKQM
Put plainly: Substrate activity at PEPT1 (unknown origin) expressed in MDCK cells assessed as PEPT1 mediated drug uptake at 0.5 mM incubated for 10 mins by HPLC analysis. The format is ADME, cell-based. To be noted: 500 µM.

A further series relates to ZR-75-1. The experiment in a line: Antitumour activity against human ZR-75-1 cells xenografted in NOD SCID nude mouse assessed as tumour inhibition at 90 mg/kg, iv administered for 20 days measured every 2 day by caliper method relative to control. The format is functional. To be noted: ZR-75-1, iv, 480 h, time 20 day.
Series [9] is described as follows: Selectivity ratio of substrate activity at PEPT1 (unknown origin) expressed in MDCK cells assessed as PEPT1 mediated drug uptake to drug uptake in MDCK cells.
Series [10] is described as follows: Cmax in NOD SCID nude mouse tumour xenografted with ZR-75-1 cells assessed as floxuridine; 5-fluoro-2-deoxyuridine concentration at 90 mg/kg, iv measured up to 24 hrs by HPLC-MS/MS analysis. In kind it is ADME, organism-based, Neoplasm. Details: route intravenous, dose 90 mg/kg, time <=24. To be noted: in vivo.
Series [11] deals with T1, Solute carrier family 15 member 1. Put plainly: Substrate activity at PEPT1 (unknown origin) expressed in MDCK cells assessed as inhibition of gly-sar uptake incubated for 10 mins by HPLC/MS/MS analysis. In kind it is cell-based.
The nature of series [12]: Selectivity ratio of substrate activity at SLC6A14 (unknown origin) expressed in Xenopus laevis oocytes assessed as ABT0+ mediated drug uptake to drug uptake in Xenopus laevis oocytes. Also on record: species or system Oocyte.
The nature of series [13]: AUC (0 to t) in NOD SCID nude mouse plasma xenografted with ZR-75-1 cells assessed as fluorouracil AUC at 90 mg/kg, iv measured up to 24 hrs by HPLC-MS/MS analysis. In kind it is ADME, organism-based. Also on record: route intravenous, dose 90 mg/kg, time <=24. To be noted: in vivo.
The nature of series [14]: Drug uptake in MDCK cells incubated for 10 mins by HPLC analysis. To be noted: dog, 500 µM, dose 0.5 mM. The format is ADME, cell-based, Canis lupus familiaris.
Series [15] deals with T2, Sodium- and chloride-dependent neutral and basic amino acid transporter B(0+) (Homo sapiens, UniProt Q9UN76).
T2 sequence (Q9UN76 whole entry): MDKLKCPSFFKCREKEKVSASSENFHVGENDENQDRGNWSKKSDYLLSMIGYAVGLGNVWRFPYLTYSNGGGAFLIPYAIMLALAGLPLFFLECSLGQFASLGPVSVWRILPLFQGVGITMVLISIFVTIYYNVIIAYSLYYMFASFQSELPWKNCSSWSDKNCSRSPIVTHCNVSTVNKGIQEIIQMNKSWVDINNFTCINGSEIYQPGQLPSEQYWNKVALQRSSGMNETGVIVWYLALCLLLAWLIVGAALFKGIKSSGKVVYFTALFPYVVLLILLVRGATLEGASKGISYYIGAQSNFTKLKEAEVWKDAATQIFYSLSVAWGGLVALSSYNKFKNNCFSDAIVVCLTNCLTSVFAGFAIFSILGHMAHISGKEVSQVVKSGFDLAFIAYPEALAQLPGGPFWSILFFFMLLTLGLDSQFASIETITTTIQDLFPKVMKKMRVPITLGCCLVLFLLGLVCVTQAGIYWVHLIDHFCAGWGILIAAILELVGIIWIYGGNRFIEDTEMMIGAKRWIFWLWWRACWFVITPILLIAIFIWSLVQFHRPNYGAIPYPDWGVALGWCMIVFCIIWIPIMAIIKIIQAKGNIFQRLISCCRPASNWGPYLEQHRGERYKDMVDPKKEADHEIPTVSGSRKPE
The experiment in a line: Substrate activity at SLC6A14 (unknown origin) expressed in Xenopus laevis oocytes assessed as ABT0+ mediated drug uptake at 0.5 mM incubated for 10 mins by HPLC analysis. As to conditions: oocyte, 500 µM. In kind it is ADME, cell-based.

Series [16] can be described thus: Toxicity in NOD SCID nude mouse xenografted with human MDA-MB-231 cells assessed as body weight at 90 mg/kg, iv for 20 days (reference value: 30.1 +/- 4.1g). In kind it is organism-based. As to conditions: in vivo, 480 h, time 20 day.
The nature of series [17]: Half life of compound in human MIA PaCa-2 cell homogenate. In kind it is ADME, tissue-based.
The next series relates to MDA-MB-231. The experiment in a line: Antitumour activity against human MDA-MB-231 cells xenografted in NOD SCID nude mouse assessed as tumour inhibition at 90 mg/kg, iv administered for 20 days measured every 2 day by caliper method relative to control. In kind it is functional. To be noted: MDA-MB-231, iv, 480 h, time 20 day.
Series [18] can be described thus: Half life of compound in human MDA-MB-231 cell homogenate. In kind it is ADME, tissue-based.
Series [19] can be described thus: Toxicity in NOD SCID nude mouse xenografted with human MIA PaCa-2 cells assessed as body weight at 90 mg/kg, iv for 20 days (reference value: 28.4 +/- 2.1g). The format is organism-based. As to conditions: in vivo, 480 h, time 20 day.

Take `O=c1[nH]c(=O)n([C@H]2C[C@H](O)[C@@H](CO)O2)cc1F` [FLOXURIDINE]: the Ratio is 0.5 in [1], 1 in series [9] and 1 in series [12]. The Activity in [2] was found to be 25.8 g; in series [16], 28.4 g; in series [19], 24.7 g. The Drug uptake in series [3], in series [8], in series [14] and in series [15] was less than 0.04 nmol/mg/min in each case. In addition, the figures for the inhibition in vivo at 90 mg/kg in the series with MIA PaCa-2, in the series with ZR-75-1 and in the series with MDA-MB-231 were 41.3%, 36.1% and 36.9%, respectively. Also, the results for the half-life in series [4], in series [17] and in [18] were 13.2 min, 15.6 min and 23.1 min, respectively. In the series on thymidine phosphorylase, the half-life at 300 µM is 10.2 min. In addition, the peak concentration (Cmax) in series [5] came out at 434.1 ng/mL; in series [10] it was 374.4 ng/g. Also, the AUCt in series [6] was 1877.1 ng·h/g; in [13], 4107.2 ng·h/mL. In series [7], this compound showed an AUC(0-t) at 24 h of 3420 ng·h/mL. Moreover, in series [11], the IC50 came out at 12.2 mM.
